From patent US11713305B2, “Zinc sensors for in vivo imaging of beta-cell function by MRI” (The Board of Regents of the University of Texas System, priority 2017, dated 2023) come the findings set out here.

A short description of data set [1]: Kinetic inertness (transmetalation by Zn(II) in phosphate buffer). Type of data set: physicochemical. The note with it: four equivalents of Zn^2+ in phosphate buffer (pH=7), 310 K. The source says: Shortly after the first confirmed clinical cases of nephrogenic systemic fibrosis (NSF), increased efforts have been made to design agents with high thermodynamic stability and kinetic inertness (Kallen et al., 2008; Reilly, 2008; Rofsky et al., 2008; Wiginton et al., 2008; Abujuden et al., 2009). The sensors shown here are very stable macrocyclic DO3A-monoamide derivatives with reported log KML>20. However, given that the agents reported here also have a high affinity for Zn^2+ ions, and Zn^2+ has been implicated as the major competing ion for transmetalation of Gd^3+ agents derived from linear polyamine ligands, the kinetic rate of Gd^3+ release is arguably the most critical factor in determining in vivo toxicity (Laurent et al., 2010). Using a previously published method (Laurent et al., 2010) consisting of incubating each agent with four equivalents of Zn^2+ in phosphate buffer (pH=7), we compared the kinetic stability of the agents reported here with the FDA-approved agent Magnevist® (GdDTPA, cf. FIG. 7).
Kinetic inertness was determined according to published procedures with minor modifications (Laurent et al., 2010; Silverio et al., 2009). Stock solutions of phosphate buffer (67 mM, pH=7.4), Gd(III) chelates (10 mM) and ZnCl2 (231 mM) were prepared first. Calculated volumes of stock solutions or water were pipetted into small glass vials to obtain a test solution of 300 μL with 30 mM phosphate, 1.5 mM Gd(III) chelate, and 6.0 mM Zn(II). Samples were measured 15 minutes after the sample temperature stabilized at 310 K. During the entire experiment, the samples inside the NMR tubes were kept in an incubator at 310 K. The T1 of the solutions was determined at 310 K and 0.47 T (20 MHz) at various time points within 7 days. As a reference, GdDTPA was analyzed under the same conditions. The R1^P relaxation rate is obtained by subtracting the diamagnetic contribution of the water relaxation (0.28 s-1) from the observed relaxation rate R1=(1/T1).

A further data set has as its target T1, HSA (Homo sapiens, UniProt P02768).
T1 construct: purchased Sigma-Aldrich
As to the kind of experiment: Proton relaxation enhancement (PRE) titrations with HSA. It is filed as binding. As to conditions: for r1^c (relaxivity of the bound state): HSA-bound GdL-Zn, from PRE fit; for Kd: fitting proton relaxation enhancement data to equation (1), 20 MHz, 310 K, read-out: KD(GdLZnHSA). How it is done: Proton relaxation enhancement (PRE) titrations were performed to evaluate the binding of these agents to HSA under conditions where the concentration of HSA was varied while the concentration of GdL and Zn^2+ (1:1) were held constant (FIG. 6). […] These types of complexes only bind to HSA-binding site 2 of subdomain IIIA, so n was assumed=1.
Affinity constants to HSA were assessed by proton relaxation enhancement (PRE) measurements according to published procedures (Martins et al., 2013a; Martins et al., 2013b) The proton relaxation rates at increasing concentrations of protein were measured with a MRS-6 NMR analyzer (20 MHz, 310 K). For the E-titration, the concentrations of GdL complex (0.1 mM) and Zn(II) (0.1 mM) were kept constant, while the protein concentration was varied from 0 to 0.6 mM.

The nature of data set [2]: r1 relaxivity measurements (20 MHz, 0.5 T, 37° C.). It is filed as physicochemical. As to conditions: 100 mM Tris buffer; for r1 0.6 mM HSA alone / r1 No Zn^2+: no Zn^2+; for r1 With Zn^2+ / r1 Zn^2+ + 0.6 mM HSA: CA:Zn = 1:1; for r1 No Zn^2+: no HSA. The procedure: Longitudinal relaxation times were measured using inversion recovery method on a MRS-6 NMR analyzer from the Institute Joz̆ef Stefan (Ljubljana, Slovenija) operating at 20 MHz. Relaxivity was determined by linear regression analysis of the relaxation rates of five solutions (0-1.0 mM). All samples were measured at 310 K using a warm air blower. Five different sample concentrations (0, 0.25, 0.5, 0.75, 1.0 mM) of gadolinium complex were made up in Tris buffer at 0.1 M and pH 7.4 to generate the relaxivity value for the free complex. ZnCl2 was then added to each of the above sample to produce a [Gd]:[Zn] ratio of 1:1. After 30 min of incubation at 310 K, T1 measurements were performed, from which the relaxivity of sensor-Zn^2+ was calculated. Finally, HSA was added to each of above sample to achieve HSA concentration of 0.6 mM. After further incubation at 310 K for 30 min, T1 of each sensor-Zn^2+-HSA adduct was measured, from which the relaxivity of sensor-Zn^2+-HSA adduct was calculated. Zinc titrations were performed with constant [GdL]=0.5 mM and increasing amounts of [Zn^2+]=0-2 mM in Tris buffer at 0.1 M and pH 7.4.

In the next data set the test system is mouse pancreas. The data set is described as follows: In vivo MR imaging of glucose stimulated insulin secretion (GSIS) in the mouse pancreas. Further details: species or system C57B1/6 mice. The note with it: for T1-weighted MR image enhancement in pancreatic tissues and kidneys: over the first 10-15 min after injection. The source says: Both phases of insulin secretion are considered essential, but the early RRP phase that is thought to be the first signal reduced during the development of type 2 diabetes (Komatsu et al., 2013; Hosker et al., 1989). In principle, both phases of insulin secretion should be detectable by MRI if enough sensor is present in the extracellular space during the time-course of these events. Biphasic GSIS was not detected by MRI in previous experiments using the first generation Zn^2+ sensors with a high affinity for Zn^2+ but we hypothesized that GSIS may be more easily detected using these second-generation agents having a much lower affinity for Zn^2+. To test this, dynamic MRI scans were collected after administering either GdL1, GdL2, GdL3 or GdL4 to C57B1/6 mice via a tail vein (0.07 mmol/kg). Nearly simultaneously with agent injection, a bolus (50 μL) of 20% w/v glucose was administered IP to stimulate secretion of insulin.
All animal experiments were performed in accordance with guidelines set by the UT Southwestern Institutional Animal Care and Use Committee (IACUC). Male C57b1/6 mice were fasted for at least 12 hours before imaging experiments. The animals were anaesthetized with isofluorane and catheterized via the tail vein. Once the animals were secured inside a 38 mm volume coil, the pancreas was positioned in the center of the 9.4 T Varian MRI scanner. Two 3D T1-weighted gradient echo pre-injection scans were obtained (TE/TR=1.69/3.34 ms, NEX8, Matrix=128×128 ×128). 70 μl of 20 mM contrast agent were injected i.v. and 50 μl of 20% w/v D-glucose were injected intraperitoneally and consecutive 3D T1-weighted scans were obtained sequentially to monitor signal enhancement in the pancreas. Identification of the pancreas was accomplished by locating the tissues surrounded by the spleen, stomach, and kidneys. A total of 3 animals were scanned per group and images were quantified and analyzed using ImageJ (National Institutes of Health, Bethesda, Md.). The signal intensities from ROIs of the tip of the pancreas were measured before, at every ˜3-4 minutes post D-glucose injection over 30 minutes total. The values were normalized to the signal intensity obtained from a water phantom placed on the mouse abdomen. Contrast enhancement was calculated using the formula
[formula] Statistical analysis was performed by comparing the mean values using a two-tailed t-test. Statistical difference was evaluated using t-scores and p-values at a 95 and 99% confidence level.

T1 sequence (P02768 25-609): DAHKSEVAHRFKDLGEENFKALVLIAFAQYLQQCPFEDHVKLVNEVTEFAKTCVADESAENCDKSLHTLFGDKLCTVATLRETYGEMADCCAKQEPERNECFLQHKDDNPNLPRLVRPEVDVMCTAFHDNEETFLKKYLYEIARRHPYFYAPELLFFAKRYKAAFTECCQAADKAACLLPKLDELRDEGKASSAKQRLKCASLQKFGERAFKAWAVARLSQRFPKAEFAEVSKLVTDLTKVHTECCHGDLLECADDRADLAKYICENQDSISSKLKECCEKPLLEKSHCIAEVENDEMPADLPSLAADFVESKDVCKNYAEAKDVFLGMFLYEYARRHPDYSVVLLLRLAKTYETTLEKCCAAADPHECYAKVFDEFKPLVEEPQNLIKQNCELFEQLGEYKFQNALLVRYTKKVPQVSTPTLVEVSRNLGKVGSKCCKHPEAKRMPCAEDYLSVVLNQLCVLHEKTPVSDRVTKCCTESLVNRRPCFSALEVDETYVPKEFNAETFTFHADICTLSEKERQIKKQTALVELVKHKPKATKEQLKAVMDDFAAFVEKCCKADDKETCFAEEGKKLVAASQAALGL

As a reminder, the Kd is the free concentration of one partner at which half of the binding sites on the other are occupied at equilibrium, for simple one-to-one binding. Turning to `O=C(O)CN1CCN(CC(=O)O)CCN(CC(=O)NCCN(Cc2ccccn2)Cc2ccccn2)CCN(CC(=O)O)CC1` [GdL1], in data set [1], the “kinetic stability against transmetalation” value (“kinetic stability” for short) was “kinetically inert”. Also, on HSA, the “r1^c (relaxivity of the bound state)” value amounted to 20 ± 0.5 s⁻¹ mM⁻¹ and the Kd was found to be 48 ± 6 µM. In data set [2], the “r1 0.6 mM HSA alone” value worked out at 5.8 ± 0.1 s⁻¹ mM⁻¹, the “r1 With Zn^2+” value is 5.2 ± 0.1^b s^−1 mM^−1, the “r1 Zn^2+ + 0.6 mM HSA” value was 17.8 ± 0.5^b s^−1 mM^−1 and the “r1 No Zn^2+” value came to 4.8 ± 0.1 s⁻¹ mM⁻¹. For the same compound, the “T1-weighted MR image enhancement in pancreatic tissues and kidneys” value (from here on “T1-weighted MR image enhancement”) with mouse pancreas (0.07 mmol/kg i.v., glucose IP) is “significant image enhancements”. For the same compound, in the data set on mouse pancreas (post-glucose stimulation), the “pancreatic response at 3 minutes (FIG. 7A)” value is on record as “enhance the pancreas”.
On to `O=C(O)CN1CCN(CCC(=O)NCCN(Cc2ccccn2)Cc2ccccn2)CCN(CC(=O)O)CCN(CC(=O)O)CC1` [GdL2], for which, in data set [1], the “kinetic stability” value is recorded as “kinetically inert”. In addition, at HSA, the “r1^c (relaxivity of the bound state)” value is 28 ± 0.3 s⁻¹ mM⁻¹ and the Kd stood at 49 ± 7 µM. Also, in data set [2], the “r1 0.6 mM HSA alone” value was found to be 6.5 ± 0.1 s⁻¹ mM⁻¹, the “r1 With Zn^2+” value is given as 5.5 ± 0.1^b s^−1 mM^−1, the “r1 Zn^2+ + 0.6 mM HSA” value is listed as 19.8 ± 0.6^b s^−1 mM^−1 and the “r1 No Zn^2+” value is 4.9 ± 0.1 s⁻¹ mM⁻¹. In addition, the “T1-weighted MR image enhancement” value in the data set with mouse pancreas (0.07 mmol/kg i.v., glucose IP) is “significant image enhancements”.
Consider `O=C(O)CCN1CCN(CC(=O)O)CCN(CC(=O)NCCN(Cc2ccccn2)Cc2ccccn2)CCN(CC(=O)O)CC1` [GdL3], for which, at HSA, the “r1^c (relaxivity of the bound state)” value was 30 ± 0.6 s⁻¹ mM⁻¹ and the Kd came to 51 ± 7 µM. Also, in data set [2], the “r1 0.6 mM HSA alone” value worked out at 6.9 ± 0.2 s⁻¹ mM⁻¹, the “r1 With Zn^2+” value was 5.4 ± 0.1^b s^−1 mM^−1, the “r1 Zn^2+ + 0.6 mM HSA” value is 21.5 ± 0.7^b s^−1 mM^−1 and the “r1 No Zn^2+” value came to 5.0 ± 0.1 s⁻¹ mM⁻¹. Also, in the data set with mouse pancreas (0.07 mmol/kg i.v., glucose IP), the “T1-weighted MR image enhancement” value is reported as “significant image enhancements”.
Take `O=C(O)CN1CCN(CC(=O)O)CCN(CC(=O)NCCN(CCc2ccccn2)Cc2ccccn2)CCN(CC(=O)O)CC1` [GdL4]: the “kinetic stability” value in data set [1] is on record as “kinetically inert”. Also, on HSA, the “r1^c (relaxivity of the bound state)” value is 12 ± 0.3 s⁻¹ mM⁻¹ and the Kd was 55 ± 12 µM. Moreover, in data set [2], the “r1 0.6 mM HSA alone” value was found to be 5.6 ± 0.1 s⁻¹ mM⁻¹, the “r1 With Zn^2+” value is 5.1 ± 0.1^b s^−1 mM^−1, the “r1 Zn^2+ + 0.6 mM HSA” value is recorded as 11.4 ± 0.3^b s^−1 mM^−1 and the “r1 No Zn^2+” value is 4.7 ± 0.1 s⁻¹ mM⁻¹. For the same compound, the “dynamic images: phases of insulin secretion detected” value with mouse pancreas (0.07 mmol/kg i.v., glucose IP, n=3) is “both early phase (3-4 min) and late phase (13-17 min) insulin secretion”. In addition, in the data set with mouse pancreas (compared to control Gd-HPDO3A and GdL1), the “Area under the curve (AUC) t=11−19 minutes post-glucose stimulation (FIG. 7C)” value is given as “improved bi-phasic profile”. Further, the “enhancement profile from pancreas ROI normalized to external phantom (FIG. 7B)” value in the data set with mouse pancreas (mouse, in vivo) is “distinct bi-phasic profile”. Besides, in the data set on mouse pancreas (post-glucose stimulation), the “pancreatic response at 3 minutes (FIG. 7A)” value is “enhance the pancreas” and the “pancreatic response at 15 minutes (FIG. 7A)” value was “shows second-phase enhancement”.
Consider `O=C(O)CN1CCN(CCC(=O)NCCN(CCc2ccccn2)Cc2ccccn2)CCN(CC(=O)O)CCN(CC(=O)O)CC1` [GdL5], for which, at HSA, the “r1^c (relaxivity of the bound state)” value was 12 ± 0.3 s⁻¹ mM⁻¹ and the Kd is 54 ± 1 µM. In data set [2], the “r1 0.6 mM HSA alone” value is 6.3 ± 0.2 s⁻¹ mM⁻¹, the “r1 With Zn^2+” value is reported as 5.3 ± 0.1^b s^−1 mM^−1, the “r1 Zn^2+ + 0.6 mM HSA” value is given as 10.4 ± 0.3^b s^−1 mM^−1 and the “r1 No Zn^2+” value stood at 4.9 ± 0.1 s⁻¹ mM⁻¹.
